# Measurements published in patent US20220305012A1, “L[…] TREATING SLEEP ISSUES” (EISAI R&D MANAGEMENT CO., LTD., priority 2019, published 2022).
# What was measured:
# Assay type in all cases: in vivo, human
# [1] = tested on: Subjects Having Insomnia Disorder; assay: Example 2: Insomnia Severity Index Daytime Functioning (Items 4-7); conditions: Day 31; Zolpidem ER 6.25 mg
# Description: As used herein, the term “Insomnia Severity Index”, abbreviated as “ISI”, is an index calculated using a 7-item, self-report questionnaire assessing the nature, severity, and impact of insomnia (see Bastien, C. H., et al. “Validation of the Insomnia Severity Index as an outcome measure for insomnia research.” Sleep Med. 2001; 2(4): 297-307). The questionnaire evaluates: (1) severity of sleep onset; (2) sleep maintenance; (3) early morning awakening problems; (4) sleep dissatisfaction; (5) interference caused by sleep difficulties with daytime functioning; (6) noticeability of sleep problems by others; and (7) distress caused by the sleep difficulties. A 5-point scale is used to rate each item (0=no problem to 4=very severe problem) yielding a total score from 0 to 28. Total ISI score (items (1)-(7)) and daytime functioning (items (4)-(7)) are analyzed separately.
# On day 1 of the baseline period, subjects were admitted to the clinic and ISI, FSS, and EQ-5D-3L were administered. Blood and urine samples were collected for routine safety assessments, an ECG was performed, and vital signs and weight were assessed. The eC-SSRS was administered. Subjects who completed the baseline period and continued to meet the eligibility criteria were randomized and began the randomization phase.
# (§1) On the evening of Day 30, subjects returned to the clinic. A pre-dose blood sample was collected and study drug was again administered within 5 minutes of the subject's mean habitual bedtime. A polysomnogram recording was initiated. The following morning (Day 31), postural stability and cognitive performance were assessed and a blood sample was obtained. The ISI, FSS, EQ-5D-3L and PGI-Insomnia were administered. Blood and urine samples were collected for routine safety assessment. An electrocardiogram was performed, and vital signs and weight were assessed. The eC-SSRS was then administered to the subject. At 1.5 hours after waketime, subjects rated their morning sleepiness level.
# [2] = tested on: Subjects Having Insomnia Disorder; assay: Example 2: postural stability, body sway upon awakening in morning; conditions: Zolpidem ER 6.25 mg
# Description: Subjects were provided with a sleep diary and trained on how to record entries. After subjects completed the sleep diary on 7 consecutive mornings, and provided that the subject was still eligible to participate in the study, they attended a second clinical meeting between 10 and 17 days before the randomization phase. The subject was then fitted with a polysomnogram and trained in how to complete the postural stability assessment and cognitive performance assessment battery. Subjects then underwent an 8-hour polysomnogram recording. Within 5 minutes of waking, the postural stability assessment and cognitive assessment battery were conducted on the subject.
# (§2) Within 5 minutes of the subject's mean habitual bedtime, study drug was administered and an overnight polysomnogram recording was initiated. At completion of the recording the following morning (Day 2), postural stability and cognitive performance were assessed. On the Day 2 evening, subjects returned to the clinic and a blood sample was collected before administering study drug, and then study drug was administered within 5 minutes of the subject's mean habitual bedtime. Again, a polysomnogram recording was initiated. The next morning (Day 3), postural stability and cognitive performance were assessed. A blood sample was also collected.
# (§3) On Day 29, subjects returned to the clinic. Study drug was administered within 5 minutes of the subject's mean habitual bedtime and a polysomnogram recording was conducted. On the following morning (Day 30), postural stability and cognitive performance were assessed. After 1.5 hours of waketime, subjects rated their morning sleepiness level.
# as §1
# An exemplary additional secondary endpoint is the change from baseline on the postural stability test of mean units of body sway on Days 2 and 3 after administration of 5 mg or 10 mg of lemborexant compared to zolpidem.
# [3] = tested on: Subjects Having Insomnia Disorder; assay: Example 2: return to sleep latency; conditions: Zolpidem 6.25 mg
# [4] = tested on: Subjects Having Insomnia Disorder; assay: Example 2: latency to persistent sleep (LPS), polysomnography; conditions: 6.25 mg
# Description: As used herein, the term “latency to persistent sleep”, abbreviated as “LPS.” means the minutes from lights off to the first epoch of 20 consecutive epochs (10 minutes) of non-wakefulness.
# In some embodiments, a sleep parameter is determined objectively using polysomnography. Polysomnography is the monitoring of multiple electrophysiological parameters during sleep and generally includes measurement of EEG activity, electro-oculographic activity and electromyographic activity, as well as other measurements.
# LPS—latency to persistent sleep: minutes from lights off to the first epoch of 20 consecutive epochs of non-wakefulness.
# The treatment period lasted for 31 days. Subjects were randomized in a double-blind manner and received placebo, a tablet containing 5 mg of lemborexant, a tablet containing 10 mg of lemborexant, or a tablet containing 6.25 mg of zolpidem ER.
# as §2, §3, §1
# The primary endpoint was to determine the change from baseline for mean latency to persistent sleep on days 29 and 30 of 5 mg or 10 mg lemborexant compared to placebo.
compound,measurement,setting,value
"Cc1ccc(-c2nc3ccc(C)cn3c2CC(=O)N(C)C)cc1 [Zolpidem ER, zolpidem, reference compound]","Insomnia Severity Daytime Functioning (Items 4-7), Change from Study Baseline, Mean (SD)",[1],−5.24 (3.764)
same,"Insomnia Severity Daytime Functioning (Items 4-7), Change from Study Baseline, Median",[1],−5.00
same,"Insomnia Severity Daytime Functioning (Items 4-7), Mean (SD)",[1],5.87 (3.417)
same,"Insomnia Severity Daytime Functioning (Items 4-7), Median",[1],6.00
same,"Body Sway Upon Awakening in Morning, Change from Study Baseline, Mean (SD)",[2]; Days 2/3,4.07 ⅓ degree angle of arc
same,"Body Sway Upon Awakening in Morning, Change from Study Baseline, Median",[2]; Days 2/3,2.50 ⅓ degree angle of arc
same,"Body Sway Upon Awakening in Morning, Mean (SD)",[2]; Days 2/3,29.86 ⅓ degree angle of arc
same,"Body Sway Upon Awakening in Morning, Median",[2]; Days 2/3,25.00 ⅓ degree angle of arc
same,"Body Sway Upon Awakening in Morning, Change from Baseline, Mean (SD)",[2]; Days 30/31,2.12 ⅓ degree angle of arc
same,"Body Sway Upon Awakening in Morning, Change from Baseline, Median",[2]; Days 30/31,2.50 ⅓ degree angle of arc
same,"Body Sway Upon Awakening in Morning, Mean (SD)",[2]; Days 30/31,27.65 ⅓ degree angle of arc
same,"Body Sway Upon Awakening in Morning, Median",[2]; Days 30/31,22.50 ⅓ degree angle of arc
same,"Return to Sleep Latency, LSM - Difference vs. Placebo",[3],-21.0 min
same,"Return to Sleep Latency, Mean (SD) change from baseline",[3],-21.2 min
same,"Return to Sleep Latency, Postdose",[3],19.6 min
same,LPS LSM treatment ratio: Active/Placebo,[4]; Days 1/2,0.972
same,"LPS, Mean",[4]; Days 1/2,31.87 min
same,"LPS, Median",[4]; Days 1/2,27.00 min
same,LPS LSM treatment ratio: Active/Placebo,[4]; Days 29/30,1.218
same,"LPS, Mean",[4]; Days 29/30,37.11 min
same,"LPS, Median",[4]; Days 29/30,28.50 min
same,"LPS, Mean",[4]; Study Baseline,44.52 min
same,"LPS, Median",[4]; Study Baseline,31.50 min
same,"LPS Change from Study Baseline, Mean",[4]; at Days 1/2,-12.56 min
same,"LPS Change from Study Baseline, Median",[4]; at Days 1/2,-5.63 min
same,"LPS Change from Study Baseline, Mean",[4]; at Days 29/30,-7.51 min
same,"LPS Change from Study Baseline, Median",[4]; at Days 29/30,-2.88 min
